The values that follow come from paper PMC12649408 (Antibiotics, 2025).

For orientation: MIC means the least concentration at which growth counts as inhibited. In general, IC50 refers to the concentration needed to halve the response being measured.

Where two headings read alike, the source gives them in different places. Bridge positions count the residues as written; N and C are the ends. Ends that are not written are not given here. Bounds are passed on as bounds.

In data set [1] the test system is Caco-2 cell monolayer. Nature of the data set: Cytotoxicity assay, resazurin method. It is filed as cell-based, human. The conditions noted are these: for СС50 Caco-2: Table S2, monolayer, 24 h in RPMI-1640, resazurin, twice in duplicate. The method, then:
(§1) Cytotoxic activity of the peptides was investigated against human peripheral blood mononuclear cells (PBMCs) and the Caco-2 epithelial monolayer as an in vitro model of the intestinal barrier using a RPMI-1640 medium and resazurin-test.
(§2) In brief, Caco-2 cells in a monolayer or 2 × 10^6 PBMCs per well were incubated with serial dilutions of the peptides for 24 h in RPMI-1640. Resazurin (Sigma, St. Louis, MO, USA) was then added at a final concentration of 70 µM and the plates were incubated for 20 h. Untreated cells (F0) and cells treated by 0.1% Triton X-100 (Sigma-Aldrich) (Fcontrol) were used as negative and positive controls, respectively. Cell viability was assessed by resorufin fluorescence using a 535/595 nm filter and a PlateReader AF2200 as ((Fsample − F0)/(Fcontrol − F0)) × 100%. […] The experiment was carried out twice in duplicate.

The subject of data set [2] is PBMCs. Nature of the data set: Cytotoxicity assay, resazurin method. It is filed as cell-based, human. The note with it: Table S2; 24 h in RPMI-1640, resazurin, twice in duplicate. The method, then: as §1, §2
A general note: Alamar Blue is a resazurin reagent that responds to reducing activity.

Test in data set [3]: not given
The source holds these as a separate data set.

Test in data set [4]: not given
This is another data set of the same source.

Test in data set [5]: not given
The source holds these as a separate data set.

Test in data set [6]: not given
The source holds these as a separate data set.

Test in data set [7]: not given
The source holds these as a separate data set.

Test in data set [8]: not given
The source holds these as a separate data set.

Test in data set [9]: not given
The source holds these as a separate data set.

Test in data set [10]: not given
This is another data set of the same source.

Test in data set [11]: not given
This is another data set of the same source.

Test in data set [12]: not given
This is another data set of the same source.

Test in data set [13]: not given
The source holds these as a separate data set.

Data set [14] concerns human red blood cells (hRBCs). The note with it: Table S2; 4% v/v hRBCs in PBS, 2 h, 37 °C. The method, then: All procedures were approved by the Ethics Committee of the Institute of Experimental Medicine (protocol 1/20 of 2/27/2020) and comply with the ethical principles of the Declaration of Helsinki. […] Samples were centrifuged to sediment intact red blood cells. Supernatants containing released hemoglobin were transferred to 96-well microplates, and absorbance was measured at 405 nm. Untreated hRBCs in PBS (A0) and hRBC treated with 0.1% Triton X-100 (Sigma-Aldrich) (Acontrol) were used as negative and positive controls, respectively. The percentage of hemolysis was calculated as [(Asample − A0)/(Acontrol − A0)] × 100%. The experiment was carried out twice in duplicate.

The subject of data set [15] is C. albicans clinical isolate 9.1. The note with it: Table 2; resistant clinical isolate 9.1; Sabouraud broth, 30 °C, 24 h, 100% inhibition. The method, then: (§3) Using the two-fold serial dilution method, antifungal activities of the obtained analogues were tested against different C. albicans strains: susceptible collection strain ATCC 18804; resistant to azoles and anidulafungin collection strain ATCC 10231 and clinical isolates 9.1 and 8.2 [7].
(§4) The antifungal assay was performed by the microdilution method using 96-well microplates and Sabouraud broth as described earlier. […] After that, the plates were incubated at 30 °C for 24 h. A control without antifungals was also tested. Fungal growth was evaluated by measuring absorbance at 630 nm. […] All the experiments were performed twice in triplicate. Microscopic analysis of fungal growth was performed using inverted microscopy (Olympus, Tokyo, Japan). A 0.1% BSA solution was used for the blocking of each microplates well to prevent the adsorption of antifungal agents.

For data set [16], the system named is C. albicans ATCC 18804. The note with it: Sabouraud broth. The method, then:
as §3, §4

Data set [17] deals with C. albicans clinical isolate 8.2. The conditions noted are these: Table 2; resistant clinical isolate 8.2; Sabouraud broth, 30 °C, 24 h, 100% inhibition. The method, then:
as §3, §4

Data set [18] concerns C. albicans ATCC 10231. The note with it: Table 2; strain resistant to azoles and anidulafungin; Sabouraud broth, 30 °C, 24 h, 100% inhibition. The method, then:
as §3, §4

The mark [19] stands for this setting: Caco-2 monolayer, RPMI-1640, resazurin-test.

In the case of `CC[C@H](C)[C@H](NC(=O)CN)C(=O)NCC(=O)N[C@@H](C)C(=O)N[C@H](C(=O)N[C@@H](CC(C)C)C(=O)N[C@@H](CCCCN)C(=O)N[C@H](C(=O)N[C@@H](CC(C)C)C(=O)N[C@H](C(=O)N[C@H](C(=O)NCC(=O)N[C@@H](CC(C)C)C(=O)N1CCC[C@H]1C(=O)N[C@@H](C)C(=O)N[C@@H](CC(C)C)C(=O)N[C@H](C(=O)N[C@@H](CO)C(=O)N[C@@H](Cc1c[nH]c2ccccc12)C(=O)N[C@H](C(=O)N[C@@H](CCCCN)C(=O)N[C@@H](CCCNC(=N)N)C(=O)N[C@@H](CCCCN)C(=O)N[C@@H](CCCNC(=N)N)C(=O)N[C@@H](CCC(N)=O)C(=O)N[C@@H](CCC(N)=O)C(N)=O)[C@@H](C)CC)[C@@H](C)CC)[C@@H](C)O)[C@@H](C)O)C(C)C)C(C)C` [melittin], in data set [1] (setting [19]), the “concentration at which cell viability was 0% (100% cell death)” value is recorded as ~12.5 µM and the “concentration at which cell viability was 50%” value was ~2.5 µM. In [1], the “СС50 Caco-2” value was found to be 2.35 µM. For the same compound, the “СС50 PBMCs” value in data set [2] is on record as 6.10 µM.

“H-RECKTESNTFPGICITKPPCRKACISEKFTDGHCSKILRRCLCRRPC-OH (disulfide 3-47, 14-34, 20-41, 24-43)” came in with a α-Helix, aqueous solution of 7.6%. The same compound yielded a β-Turn, aqueous solution in data set [3] of 23.7%. Further, the Random, SDS micelles in data set [4] was found to be 32.5%. This compound also had a β-Sheet, DPC micelles in [5] of 30.4%. In addition, in data set [6], the α-Helix, DPC micelles was determined as 15.8%. Besides, the Random, aqueous solution in [7] is 38.9%. For the same compound, in [8], the α-Helix, SDS micelles stood at 16.2%. Besides, in data set [9], the Random, DPC micelles was 31.1%. Besides, the β-Sheet, SDS micelles in [10] is 28.5%. In addition, the β-Turn, DPC micelles in data set [11] is 22.6%. The compound further came in with a β-Sheet, aqueous solution in data set [12] of 29.8%. For the same compound, the β-Turn, SDS micelles in data set [13] is 22.7%.

On to “H-RECKTESNTFPGICITKPPCRKACISEKFTDGHCSKIRRRCLCRRPC-OH (disulfide 3-47, 14-34, 20-41, 24-43)”, for which the α-Helix, aqueous solution turned out to be 8.9%. In [3], this compound gave a β-Turn, aqueous solution of 22.7%. This compound also yielded a Random, SDS micelles in data set [4] of 31%. The β-Sheet, DPC micelles in data set [5] was 31.2%. Further, the α-Helix, DPC micelles in [6] was determined as 14.1%. This compound also registered a Random, aqueous solution in [7] of 37.7%. This compound also gave a α-Helix, SDS micelles in data set [8] of 16.6%. Further, in data set [9], the Random, DPC micelles was determined as 32.9%. In data set [10], this compound returned a β-Sheet, SDS micelles of 30.8%. In addition, the β-Turn, DPC micelles in [11] turned out to be 21.7%. Also, in data set [12], the β-Sheet, aqueous solution was determined as 30.7%. The β-Turn, SDS micelles in data set [13] was determined as 21.7%.

As to “H-RECKTESNTFPGICITKPPCRKACISEKFTDGHCSKIRRRCLCTKPC-OH (disulfide 3-47, 14-34, 20-41, 24-43)”, the α-Helix, aqueous solution came to 8.3%. This compound also displayed a β-Turn, aqueous solution in data set [3] of 21.2%. For the same compound, the Random, SDS micelles in data set [4] was determined as 31.2%. The β-Sheet, DPC micelles in data set [5] stood at 31.1%. Besides, the α-Helix, DPC micelles in [6] is 15.5%. The compound also yielded a Random, aqueous solution in [7] of 36.2%. In addition, the α-Helix, SDS micelles in data set [8] was found to be 14.2%. Also, the Random, DPC micelles in data set [9] stood at 32.9%. In [10], this compound came in with a β-Sheet, SDS micelles of 32.8%. Further, in [11], the β-Turn, DPC micelles was 20.5%. The β-Sheet, aqueous solution in [12] was 34.3%. The compound also had a β-Turn, SDS micelles in data set [13] of 21.8%.

“H-RECKTESNTFPGICITKPPCRKACISEKFTDGHCSRIRRRCLCTKPC-OH (disulfide 3-47, 14-34, 20-41, 24-43)”: the α-Helix, aqueous solution turned out to be 5.6%. Also, in [3], the β-Turn, aqueous solution stood at 22%. Moreover, the Random, SDS micelles in [4] was determined as 31.9%. In addition, in data set [5], the β-Sheet, DPC micelles worked out at 35.8%. In [6], this compound yielded a α-Helix, DPC micelles of 7.6%. For the same compound, in data set [7], the Random, aqueous solution amounted to 35.6%. Also, in data set [8], the α-Helix, SDS micelles was 6.5%. Moreover, in data set [9], the Random, DPC micelles amounted to 34.6%. In data set [10], this compound registered a β-Sheet, SDS micelles of 40.4%. For the same compound, the β-Turn, DPC micelles in [11] was determined as 22%. For the same compound, the β-Sheet, aqueous solution in [12] was found to be 36.8%. This compound gave a β-Turn, SDS micelles in data set [13] of 21.3%.

With “RECKTESNTFPGICITKPPCRKACISEKFTDGHCRGFRRRCLCTKPC (disulfide 3-47, 14-34, 20-41, 24-43) [NaD1-L5]”, the α-Helix, aqueous solution was determined as 13.5%. The compound also gave a β-Turn, aqueous solution in data set [3] of 24.3%. Besides, in data set [4], the Random, SDS micelles stood at 35.9%. The β-Sheet, DPC micelles in [5] turned out to be 24.1%. Besides, the “Hemolysis at 100 µM” value in data set [14] is listed as “no hemolysis”. In [6], this compound showed a α-Helix, DPC micelles of 18.2%. The compound also returned a Random, aqueous solution in data set [7] of 39.3%. The same compound returned a α-Helix, SDS micelles in [8] of 17.8%. The compound further had a Random, DPC micelles in data set [9] of 35.5%. Also, the β-Sheet, SDS micelles in [10] is 23%. In data set [11], this compound showed a β-Turn, DPC micelles of 22.3%. The β-Sheet, aqueous solution in data set [12] stood at 22.9%. Further, the β-Turn, SDS micelles in data set [13] is 23.4%. This compound returned an MIC in [15] of 6.25 µM. In addition, the IC50 in data set [16] (50 mM NaCl, 50% inhibition) lay in the range of 25 to 50 µM. For the same compound, the MIC in data set [16] (50 mM NaCl, 100% inhibition) is 50 µM. Moreover, the IC50 in data set [16] (150 mM NaCl, 50% inhibition) is > 50 µM. The MIC in data set [16] (150 mM NaCl, 100% inhibition) is >50 µM. In [16] (Table 2, 30 °C, 24 h, 100% inhibition of fungal growth, absorbance 630 nm, two-fold dilutions, twice in triplicate), this compound registered an MIC of 6.25 µM. In data set [16] (Table 3, No Salts, 50% inhibition of fungal growth), the IC50 lay in the range of 3.13 to 6.25 µM. In addition, in [16] (Table 3, No Salts, 100% inhibition of fungal growth), the MIC is 6.25 µM. Moreover, the IC50 in data set [16] ([…] CaCl2, 50% inhibition) lay in the range of 25 to 50 µM. Moreover, the MIC in data set [16] ([…] CaCl2, 100% inhibition) is 50 µM. For the same compound, in [16] ([…] MgCl2, 50% inhibition), the IC50 is 12.5 to 25 µM. For the same compound, the MIC in [16] ([…] MgCl2, 100% inhibition) worked out at 50 µM. Further, the MIC in data set [17] stood at 25 µM. In addition, the MIC in [18] came to 6.25 µM. In addition, the “СС50 Caco-2” value in data set [1] is > 150 µM. The “cytotoxic effects on Caco-2 cells” value in data set [1] (in words, at a concentration of 150 µM) is reported as “practically no cytotoxic effects”.
